Assays:
lymphocytes = experiment: intracellular metabolism, RNA quantity in a cell and phagocytosis; format: cell-based, human
[1] = thermal stability (heating); format: physicochemical
Experimental: (§1) The preparation is soluble in diluted alkalis, dimethylformamide and dimethysulfoxide. Aqueous solutions of the preparation give an acid reaction. M.p. of the preparation lies at 233°-234°C, at temperatures above 235°C it decomposes; the preparation withstands heating at 150°C during 2 hours, at 100°C during 5 hours without decomposition.

storage stability = format: physicochemical
Excerpt: The medicinal preparation according to the invention for treatment of various forms of leprosy is stable when under long-term storage.

[2] = clinico-biochemical data and blood findings in leprosy patients; format: in vivo, human
[3] = toxico-biological action during a three-month period (biochemical and histomorphological analyses); format: in vivo, white mice, rats and cats; conditions: compared to control animals
Excerpt: Toxico-biological action of the preparation was studied in animals of the three species, viz., white mice, rats and cats. As a result, it was established that introduction of the medicinal preparation into an animal's organism during a three-month period provokes no changes, according to the data of biochemical and histomorphological analyses, in the internal organs, endocrine glands, brain, nerves and blood as compared to the control animals.

[4] = concentration of sulfonic preparations in the blood during treatment; format: in vivo
Experimental: When determining the concentration of sulfonic preparations in the blood during treatment with diaminodiphenylsulfone, sulphetrone and the inventive preparations, it was observed that the concentration of the inventive preparation is twelve times as high as that of diaminodiphenylsulfone, both being administered as a powder at a dose of 0.1 g s.i.d. Futhermore, Injection of 2 ml of a 10 percent solution of the inventive preparation gave a concentration in the blood four times that which resulted from the introduction of 1 ml of 15-10 percent solution of sulphetrone.

[5] = toxicity with respect to warm-blooded animals
[6] = human, in vivo
[7] = tested on: lymphocytes of the human peripheral blood; experiment: influence upon the synthesis of RNA in lymphocytes; format: cell-based
Excerpt: This may be considered as an evidence of possible differentiation of the lymphocytes or of potentiation of their specific function under the effect of the preparation.

Mycobacterium leprae = experiment: clinical experiments on 99 leprosy patients, therapeutic effect; format: in vivo, human
[8] = solubility and reaction of aqueous solutions; format: physicochemical
Experimental: as §1

Cc1[nH]c(=O)[nH]c(=O)c1S(=O)(=O)Nc1ccc(S(=O)(=O)c2ccc(NS(=O)(=O)c3c(C)[nH]c(=O)[nH]c3=O)cc2)cc1 [preparation, p,-p-bis(2,4-dioxy-6-methylpyrimidinyl-5-sulfonamido)diphenylsulfone]
intracellular metabolism (lymphocytes): promotes the processes of intracellular metabolism
quantity of RNA in a cell (lymphocytes): enhances the quantity of RNA in a cell
differentiation of lymphocytes and phagocytosis (lymphocytes; lepromatous form of leprosy): easier differentiation of the lymphocytes into phagocytic forms and to the completion of phagocytosis
decomposition temperature [1]: above 235 °C
withstands heating without decomposition ([1]; 100°C): 5 h
withstands heating without decomposition ([1]; 150°C): 2 h
retention of properties on storage (storage stability; darkness, 18°-25°C, 5 years): retain the appearance, melting point, IR-spectrum data, solubility and pH value of an aqueous solution
storage stability (storage stability; long-term storage): stable
anabolic effect ([2]; clinico-biochemical data): less manifested
antipyretic effect ([2]; clinico-biochemical data): sharply pronounced
amount of erythrocytes ([2]; in the course of treatment): increased amount of erythrocytes
percentage of hemoglobin ([2]; in the course of treatment): higher percentage of hemoglobin
protein metabolism ([2]; in the course of treatment): normalized protein metabolism
changes in internal organs, endocrine glands, brain, nerves and blood [3]: no changes
concentration in the blood relative to sulphetrone ([4]; 2 ml of 10 percent solution injected vs 1 ml of 15-10 percent solution of sulphetrone): four
concentration in blood relative to diaminodiphenylsulfone ([4]; both as a powder, 0.1 g s.i.d.): twelve
LD50 ([5]; in vivo): 2600 mg/kg
toxicity relative to diaminodiphenylsulfone ([5]; white mice, rats, cats, vs diaminodiphenylsulfone): one-fifth
side effects [6]: none of the patients was found to suffer from any side effect
toxicity and effect on protective power, as concluded from RNA synthesis ([7]; increased immune response): non-toxic and acts as a stimulant of the protective power of the organisms
synthesis of RNA in lymphocytes ([7]; lymphocytes of the human peripheral blood): promotes the synthesis of RNA
recurrence of the disease (Mycobacterium leprae; 36 patients dismissed for ambulant therapy, following four years): None of the 36 patients
therapeutic effect in patients resistant to sulfonic antileprotic preparations (Mycobacterium leprae; all patients resistant to sulfonic antileprotic preparations): good therapeutic effect
transformation of the lepromatous form into the tuberculoid form (Mycobacterium leprae; histological examinations during the course of treatment): 7 patients
start of the regress of the disease (Mycobacterium leprae; human, in vivo): 3-6 weeks
leprous reactions, neurites, inflammatory processes of the mucous membranes (Mycobacterium leprae; in the course of treatment): disappeared
character of the regress of the disease (Mycobacterium leprae; infiltrates, lepromas, causative agent, fibrosis): resolution of infiltrates and lepromas, appearance of a great amount of granular forms of the causative agent and bacterial decomposition, as well as occurrence of a sharply marked fibrosis
effect in patients resistant to sulfonic or other antileprotic therapy (Mycobacterium leprae; patients resistant to sulfonic or some other antileprotic therapy): effective
solubility in aqueous novocain solution ([8]; 0.1-1-percent aqueous novocain solution): sparingly soluble
reaction of aqueous solutions ([8]; aqueous solutions): acid reaction
solubility in diluted alkalis ([8]; diluted alkalis): soluble
solubility in dimethylformamide ([8]; dimethylformamide): soluble
solubility in dimethysulfoxide ([8]; dimethysulfoxide): soluble
solubility in ethyl alcohol ([8]; ethyl alcohol): insoluble
solubility in physiological saline ([8]; physiological saline): sparingly soluble
solubility in water ([8]; water): sparingly soluble
solubility ([8]; water, solutions, read-out: concentration of the active principle above which the substance precipitates): > 120 mg/mL

Reference: US3937829A, “Medicinal preparation for treatment of various forms of leprosy” (priority 1973, dated 1976)
